Measurements published in PubChem BioAssay (NCI).
Several values for one entry are separate records, joined by “and”; a condition that tells them apart may be missing. Equal values may be shown once.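 Five compound concentrations were applied to cells in 96-well plates for 48 hours; endpoints were derived by simple linear interpolation of the resulting dose-response curve. GI50 = concentration required for 50% inhibition of growth. TGI: concentration producing complete growth inhibition.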

Experiments:
Experiment in all cases: DTP human tumour cell line panel, 48 h
786-0 renal = tested on: 786-0 renal
EKVX NSCLC = tested on: EKVX NSCLC
HT29 colon = tested on: HT29 colon
IGROV1 ovarian = tested on: IGROV1 ovarian
K-562 leukemia = tested on: K-562 leukemia
MALME-3M melanoma = tested on: MALME-3M melanoma
OVCAR-5 ovarian = tested on: OVCAR-5 ovarian
SN12C renal = tested on: SN12C renal
SR leukemia = tested on: SR leukemia
UACC-62 melanoma = tested on: UACC-62 melanoma

O=C(/C=C/c1cccs1)Nc1ncc(Cc2ccccc2F)s1
GI50 (786-0 renal): 590 nM | TGI (786-0 renal): > 100 µM | GI50 (EKVX NSCLC): 0.412 µM | TGI (EKVX NSCLC): > 100 µM | GI50 (HT29 colon): 210 nM | TGI (HT29 colon): > 100 µM | GI50 (IGROV1 ovarian): 0.541 µM | TGI (IGROV1 ovarian): > 100 µM | GI50 (K-562 leukemia): 0.0749 µM | TGI (K-562 leukemia): > 100 µM | GI50 (MALME-3M melanoma): 359 nM | TGI (MALME-3M melanoma): > 100 µM | GI50 (OVCAR-5 ovarian): 0.506 µM | TGI (OVCAR-5 ovarian): > 100 µM | GI50 (SN12C renal): 0.633 µM | TGI (SN12C renal): > 100 µM | GI50 (SR leukemia): 52.2 nM | TGI (SR leukemia): > 100 µM | GI50 (UACC-62 melanoma): 0.207 µM | TGI (UACC-62 melanoma): > 100 µM

O=C1CCC(c2ccccc2)(c2ccccc2)CC1
TGI (786-0 renal): > 100 µM | TGI (EKVX NSCLC): > 100 µM | TGI (HT29 colon): > 100 µM | TGI (IGROV1 ovarian): > 100 µM | TGI (K-562 leukemia): > 100 µM | TGI (MALME-3M melanoma): > 100 µM | TGI (OVCAR-5 ovarian): > 100 µM | TGI (SN12C renal): > 100 µM | TGI (SR leukemia): > 100 µM | TGI (UACC-62 melanoma): > 100 µM

CCN(CC)c1ccc(/C=N\NC(=O)c2cccc(Nc3ccnc(C(F)(F)F)c3)c2)c(O)c1
GI50 (786-0 renal): 270 nM | TGI (786-0 renal): 0.885 µM | GI50 (EKVX NSCLC): 0.219 µM | TGI (EKVX NSCLC): 3.8 µM | GI50 (HT29 colon): 301 nM | TGI (HT29 colon): 7.26 µM | GI50 (IGROV1 ovarian): 0.143 µM | GI50 (K-562 leukemia): 0.374 µM | TGI (K-562 leukemia): > 100 µM | GI50 (MALME-3M melanoma): 348 nM | TGI (MALME-3M melanoma): 4.32 µM | GI50 (OVCAR-5 ovarian): 0.408 µM | TGI (OVCAR-5 ovarian): > 39.3 µM | GI50 (SN12C renal): 0.278 µM | TGI (SN12C renal): > 36.5 µM | GI50 (SR leukemia): 96.7 nM | TGI (SR leukemia): 0.736 µM | GI50 (UACC-62 melanoma): 0.25 µM | TGI (UACC-62 melanoma): 1.68 µM

COCCOC(=O)CCn1cc(F)c(=O)[nH]c1=O
GI50 (786-0 renal): 8.12 µg/mL | TGI (786-0 renal): > 150 µg/mL | GI50 (EKVX NSCLC): 57.8 µg/mL | TGI (EKVX NSCLC): > 150 µg/mL | GI50 (HT29 colon): 4.55 µg/mL | TGI (HT29 colon): > 150 µg/mL | GI50 (IGROV1 ovarian): 7.36 µg/mL | TGI (IGROV1 ovarian): > 150 µg/mL | GI50 (K-562 leukemia): 21.3 µg/mL | TGI (K-562 leukemia): > 150 µg/mL | GI50 (MALME-3M melanoma): > 150 µg/mL | TGI (MALME-3M melanoma): > 150 µg/mL | GI50 (OVCAR-5 ovarian): 122 µg/mL | TGI (OVCAR-5 ovarian): > 150 µg/mL | GI50 (SN12C renal): 7.8 µg/mL | TGI (SN12C renal): > 150 µg/mL | GI50 (SR leukemia): 2.97 µg/mL | TGI (SR leukemia): > 150 µg/mL | GI50 (UACC-62 melanoma): 11 µg/mL | TGI (UACC-62 melanoma): > 150 µg/mL

C=C1C(=O)O[C@H]2[C@H](OC(C)=O)[C@@H](C)CCC/C(C)=C/CC[C@]3(CO3)[C@H](O)C[C@@H]12
GI50 (786-0 renal): 3650 nM | TGI (786-0 renal): 14.1 µM | GI50 (EKVX NSCLC): 4.52 µM | TGI (EKVX NSCLC): 17.3 µM | GI50 (HT29 colon): 3230 nM | TGI (HT29 colon): 11.5 µM | GI50 (IGROV1 ovarian): 3.37 µM | TGI (IGROV1 ovarian): 12.8 µM | GI50 (K-562 leukemia): 1.85 µM | TGI (K-562 leukemia): 5.06 µM | GI50 (MALME-3M melanoma): 2690 nM | TGI (MALME-3M melanoma): 12.3 µM | GI50 (OVCAR-5 ovarian): 13.2 µM | TGI (OVCAR-5 ovarian): 26.5 µM | GI50 (SN12C renal): 4.26 µM | TGI (SN12C renal): 14.3 µM | GI50 (SR leukemia): 1320 nM | TGI (SR leukemia): 3.94 µM | GI50 (UACC-62 melanoma): 12.7 µM | TGI (UACC-62 melanoma): 25.3 µM

OCC1CC2CC1C1(C2)OCCO1 (stereo not given)
TGI (786-0 renal): > 100 µM | TGI (EKVX NSCLC): > 100 µM | TGI (HT29 colon): > 100 µM | TGI (IGROV1 ovarian): > 100 µM | TGI (K-562 leukemia): > 100 µM | TGI (MALME-3M melanoma): > 100 µM | TGI (OVCAR-5 ovarian): > 100 µM | TGI (SN12C renal): > 100 µM | TGI (SR leukemia): > 100 µM | TGI (UACC-62 melanoma): > 100 µM

Cc1ccc(S(=O)(=O)ON=C2CC(c3ccccc3)N(C)C(c3ccccc3)C2)cc1 (stereo not given)
TGI (786-0 renal): 44.9 µM and 58.5 µM | TGI (EKVX NSCLC): > 100 µM | TGI (HT29 colon): 54.7 µM and 57.3 µM | TGI (IGROV1 ovarian): 62.1 µM and 56.7 µM | GI50 (K-562 leukemia): 60.1 µM and 29.3 µM | TGI (K-562 leukemia): > 100 µM | TGI (MALME-3M melanoma): 78.1 µM and 66.4 µM | TGI (OVCAR-5 ovarian): 92.6 µM | TGI (SN12C renal): 55 µM | TGI (SR leukemia): 62.5 µM and 57.3 µM | TGI (UACC-62 melanoma): 31.1 µM

CC(=O)OCC1OC(O[C@@H]2C[C@H]3C(C)(C)[C@H](OC(C)=O)CC[C@]3(C)[C@H]3CC[C@@H]4[C@]5(CC[C@@]4(C)[C@@]32C)O[C@@H]([C@H](O)C(C)(C)O)C[C@@H]5C)C(O)C(O)C1O (stereo not given in full)
GI50 (786-0 renal): 8790 nM | TGI (786-0 renal): 21.9 µM | GI50 (EKVX NSCLC): 9.52 µM | TGI (EKVX NSCLC): 28.5 µM | GI50 (HT29 colon): 1830 nM | TGI (HT29 colon): 4.28 µM | GI50 (IGROV1 ovarian): 9.57 µM | TGI (IGROV1 ovarian): 21.6 µM | GI50 (K-562 leukemia): 4.51 µM | TGI (K-562 leukemia): 25.1 µM | GI50 (MALME-3M melanoma): 10300 nM | TGI (MALME-3M melanoma): 22.4 µM | GI50 (OVCAR-5 ovarian): 5.07 µM | TGI (OVCAR-5 ovarian): 17.5 µM | GI50 (SN12C renal): 11.1 µM | TGI (SN12C renal): 24 µM | GI50 (SR leukemia): 3080 nM | TGI (SR leukemia): 12.9 µM | GI50 (UACC-62 melanoma): 6.36 µM | TGI (UACC-62 melanoma): 19.7 µM

Fc1cc(Nc2ccc3c(OCCCN4CCOCC4)cccc3n2)ccc1Cl
GI50 (786-0 renal): 1790 nM | TGI (786-0 renal): 3.53 µM | GI50 (EKVX NSCLC): 2.37 µM | TGI (EKVX NSCLC): 6.2 µM | GI50 (HT29 colon): 1530 nM | TGI (HT29 colon): 3 µM | GI50 (IGROV1 ovarian): 3.19 µM | TGI (IGROV1 ovarian): 9.32 µM | GI50 (K-562 leukemia): 1.91 µM | TGI (K-562 leukemia): 4.38 µM | GI50 (MALME-3M melanoma): 1910 nM | TGI (MALME-3M melanoma): 4.36 µM | GI50 (OVCAR-5 ovarian): 2.13 µM | TGI (OVCAR-5 ovarian): 4.88 µM | GI50 (SN12C renal): 4.36 µM | TGI (SN12C renal): 19.3 µM | GI50 (SR leukemia): 1690 nM | TGI (SR leukemia): 6.64 µM | GI50 (UACC-62 melanoma): 2.32 µM | TGI (UACC-62 melanoma): 5.61 µM

Cc1cc(I)cc(CN(C)CCCCN2CCCC2)c1O
GI50 (786-0 renal): 15300 nM | TGI (786-0 renal): 31.4 µM | GI50 (EKVX NSCLC): 34.8 µM | TGI (EKVX NSCLC): > 100 µM | GI50 (HT29 colon): 5700 nM | TGI (HT29 colon): 22 µM | GI50 (IGROV1 ovarian): 24.8 µM | TGI (IGROV1 ovarian): 59.1 µM | GI50 (K-562 leukemia): 11.3 µM | TGI (K-562 leukemia): 24.2 µM | GI50 (MALME-3M melanoma): 19700 nM | TGI (MALME-3M melanoma): 36.1 µM | GI50 (OVCAR-5 ovarian): 27.6 µM | TGI (OVCAR-5 ovarian): > 100 µM | GI50 (SN12C renal): 52.2 µM | TGI (SN12C renal): > 100 µM | GI50 (SR leukemia): 11500 nM | TGI (SR leukemia): 29.4 µM | GI50 (UACC-62 melanoma): 4.19 µM | TGI (UACC-62 melanoma): 15.7 µM
